Patent US10077261B2, “Imidazolin-5-one derivative useful as FASN inhibitors for the treatment of cancer” (Janssen Pharmaceutica NV, priority 2012, dated 2018)

Legend:
[1] = target: T1, hFASN enzyme (full length) (Homo sapiens, UniProt P49327); assay: Fatty Acid Synthase (FASN) inhibition scintillation proximity assay; type: biochemical; settings: for inhibition at 10 µM: read-out: Human FASN % inhibition @ 10 μM, 10 μM test compound; for IC50: read-out: Human FASN pIC50 (converted)
T1 construct: 10 μL hFASN enzyme (full length, 300 ng, purified in house); made in house
Procedure, shortened: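 Scintillation proximity format: in-house full-length enzyme, 300 ng per well, pH 7.5 phosphate/DTT buffer, ³H-acetyl-CoA and malonyl-CoA. Emission counted on LEADseeker at 610 nm at least 24 h after stopping.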

A2780 ovarian cells [2] = assay: A2780 ovarian cell proliferation assay in lipid reduced medium, with palmitate (MTT); type: cell-based; settings: Homo sapiens, A2780, 96 h; read-out: pIC50 A2780 Ovarian Cell, With Palmitate (converted)
Procedure, shortened: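 In this palmitate-supplemented format, compound dilutions (30 μM down to 0.01 μM) are added to cells in lipid-reduced serum with 25 μM palmitate, 0.2% fatty-acid-free BSA and 0.25% ethanol. After four days (96 h) MTT absorbance at 544 nm is recorded and fitted by minimum sum of squares.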

[3] = target: Fatty Acid Synthase Keto-reductase Domain (FASN KR) (Homo sapiens, UniProt P49327); assay: Fatty Acid Synthase keto-reductase domain (FASN KR) inhibition, NADPH oxidation at 340 nm
Procedure: After 20 minutes incubation at room temperature the plate was measured again (T2).
The decrease in absorbance was calculated as (Absorbance before incubation T1)−(Absorbance following incubation T2).
A plot of Controlmin versus test compound concentration was fitted to a 4-parameter logistic curve using a non-linear least squares regression method.

A2780 ovarian cells [4] = assay: A2780 ovarian cell proliferation assay in lipid reduced medium, without palmitate (MTT); type: cell-based; settings: Homo sapiens, A2780, 96 h; read-out: pIC50 A2780 Ovarian Cell, Without Palmitate (converted)

Chain of Fatty Acid Synthase Keto-reductase Domain (FASN KR) (P49327 whole entry, the tested form may be a part): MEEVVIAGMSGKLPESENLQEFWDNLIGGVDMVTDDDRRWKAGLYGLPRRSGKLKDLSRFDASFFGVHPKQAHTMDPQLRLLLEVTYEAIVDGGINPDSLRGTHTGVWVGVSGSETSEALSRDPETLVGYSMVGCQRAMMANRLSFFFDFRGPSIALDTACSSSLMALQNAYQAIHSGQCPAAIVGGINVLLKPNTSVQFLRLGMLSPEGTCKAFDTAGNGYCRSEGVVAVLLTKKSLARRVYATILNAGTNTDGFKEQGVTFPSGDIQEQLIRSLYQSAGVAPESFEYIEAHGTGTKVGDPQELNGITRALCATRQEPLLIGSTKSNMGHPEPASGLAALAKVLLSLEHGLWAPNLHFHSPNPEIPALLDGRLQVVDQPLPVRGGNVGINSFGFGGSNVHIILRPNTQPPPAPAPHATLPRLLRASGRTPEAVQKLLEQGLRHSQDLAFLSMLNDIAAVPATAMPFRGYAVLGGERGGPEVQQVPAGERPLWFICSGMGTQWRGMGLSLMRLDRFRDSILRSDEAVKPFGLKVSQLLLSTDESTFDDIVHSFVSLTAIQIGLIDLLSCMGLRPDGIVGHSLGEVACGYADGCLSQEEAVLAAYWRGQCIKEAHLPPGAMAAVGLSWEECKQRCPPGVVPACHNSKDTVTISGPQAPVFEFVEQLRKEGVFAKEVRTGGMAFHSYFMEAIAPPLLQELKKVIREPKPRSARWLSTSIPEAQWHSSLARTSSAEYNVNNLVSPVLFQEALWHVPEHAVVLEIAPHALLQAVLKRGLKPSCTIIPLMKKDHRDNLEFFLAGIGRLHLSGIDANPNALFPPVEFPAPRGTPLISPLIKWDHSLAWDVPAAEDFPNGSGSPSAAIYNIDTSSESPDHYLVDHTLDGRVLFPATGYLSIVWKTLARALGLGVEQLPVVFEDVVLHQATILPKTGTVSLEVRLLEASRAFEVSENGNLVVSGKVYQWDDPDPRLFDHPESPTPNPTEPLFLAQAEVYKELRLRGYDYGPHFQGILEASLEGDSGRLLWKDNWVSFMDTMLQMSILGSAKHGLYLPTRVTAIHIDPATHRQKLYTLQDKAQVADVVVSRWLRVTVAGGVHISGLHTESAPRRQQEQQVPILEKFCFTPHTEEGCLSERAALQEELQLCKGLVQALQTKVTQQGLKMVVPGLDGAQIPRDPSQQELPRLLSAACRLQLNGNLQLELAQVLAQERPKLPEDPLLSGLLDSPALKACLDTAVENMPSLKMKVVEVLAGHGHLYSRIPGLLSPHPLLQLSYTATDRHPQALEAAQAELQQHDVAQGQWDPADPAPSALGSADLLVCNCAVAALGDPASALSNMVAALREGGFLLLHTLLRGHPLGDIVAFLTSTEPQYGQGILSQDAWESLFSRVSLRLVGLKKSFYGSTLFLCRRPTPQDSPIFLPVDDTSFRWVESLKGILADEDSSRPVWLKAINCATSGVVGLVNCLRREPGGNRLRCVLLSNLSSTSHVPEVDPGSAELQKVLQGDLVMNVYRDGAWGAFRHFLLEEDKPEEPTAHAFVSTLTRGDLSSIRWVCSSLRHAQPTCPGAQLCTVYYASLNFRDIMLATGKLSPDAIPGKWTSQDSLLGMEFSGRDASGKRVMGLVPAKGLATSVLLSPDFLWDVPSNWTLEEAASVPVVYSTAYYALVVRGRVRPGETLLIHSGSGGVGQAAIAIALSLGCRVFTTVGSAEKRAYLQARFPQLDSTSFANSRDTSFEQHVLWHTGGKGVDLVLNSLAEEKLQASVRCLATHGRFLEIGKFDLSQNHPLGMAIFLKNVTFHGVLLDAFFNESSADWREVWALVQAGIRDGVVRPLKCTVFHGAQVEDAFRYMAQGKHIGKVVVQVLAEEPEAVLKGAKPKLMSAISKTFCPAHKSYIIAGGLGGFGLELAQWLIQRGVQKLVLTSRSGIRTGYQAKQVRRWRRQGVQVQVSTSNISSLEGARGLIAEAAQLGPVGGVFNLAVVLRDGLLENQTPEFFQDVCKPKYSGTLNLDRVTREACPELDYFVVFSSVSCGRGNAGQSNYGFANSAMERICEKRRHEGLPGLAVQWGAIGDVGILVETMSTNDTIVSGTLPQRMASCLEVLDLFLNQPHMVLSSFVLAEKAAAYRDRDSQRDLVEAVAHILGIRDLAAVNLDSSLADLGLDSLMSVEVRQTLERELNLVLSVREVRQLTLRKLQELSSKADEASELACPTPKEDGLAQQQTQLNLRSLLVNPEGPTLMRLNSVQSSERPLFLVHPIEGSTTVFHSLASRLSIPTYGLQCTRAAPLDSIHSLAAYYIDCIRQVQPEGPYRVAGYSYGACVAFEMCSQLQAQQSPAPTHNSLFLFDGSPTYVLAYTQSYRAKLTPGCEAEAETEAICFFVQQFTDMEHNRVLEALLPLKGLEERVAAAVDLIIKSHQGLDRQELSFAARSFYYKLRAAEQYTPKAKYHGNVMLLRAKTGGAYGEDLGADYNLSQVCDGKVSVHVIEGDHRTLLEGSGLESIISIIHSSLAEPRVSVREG
T1 sequence (P49327 whole entry): as the sequence (P49327 whole entry, the tested form may be a part) above

inhibition at 10 µM [1] [%] | IC50 [1] [nM] | IC50 (A2780 ovarian cells [2]) [µM] | IC50 [3] [nM] | IC50 (A2780 ovarian cells [4]) [nM] | Structure (SMILES)
109 | 25.7 | > 10 | 56.2 | 251 | O=C(C1CC1)N1CC[C@@H](CN2C(=O)C3(CCCC3)N=C2c2ccc(-c3ccc4cc[nH]c4c3)cc2)C1 [compound 33, 3-{[(3R)-1-(Cyclopropylcarbonyl)pyrrolidin-3-yl]methyl}-2-[4-(1H-indol-6-yl)phenyl]-1,3-diazaspiro[4.4]non-1-en-4-one]
102 | 117 | > 10 | 355 | 776 | Cn1ncc2ccc(-c3ccc(C4=NC5(CCCC5)C(=O)N4C[C@@H]4CCN(C(=O)C5CC5)C4)cc3)cc21 [compound 34, 3-{[(3R)-1-(Cyclopropylcarbonyl)pyrrolidin-3-yl]methyl}-2-[4-(1-methyl-1H-indazol-6-yl)phenyl]-1,3-diazaspiro[4.4]non-1-en-4-one]
96.2 | 550 | > 10 | 1410 | 3470 | O=C(C1CC1)N1CC[C@@H](CN2C(=O)C3(CCCC3)N=C2c2ccc(-c3nc4ccccc4o3)cc2)C1 [compound 36, 2-[4-(1,3-Benzoxazol-2-yl)phenyl]-3-{[(3R)-1-(cyclopropylcarbonyl)pyrrolidin-3-yl]methyl}-1,3-diazaspiro[4.4]non-1-en-4-one]
94.9 | 269 | > 10 | 646 | 1200 | Cn1ncc2ccc(-c3ccc(C4=NC5(CC5)C(=O)N4CC4CN(C(=O)C5CC5)C4)cc3)cc21 [compound 38, 6-{[1-(Cyclopropylcarbonyl)azetidin-3-yl]methyl}-5-[4-(1-methyl-1H-indazol-6-yl)phenyl]-4,6-diazaspiro[2.4]hept-4-en-7-one]
106 | 18.6 | > 10 | 42.7 | 72.4 | O=C(C1CC1)N1CC(CN2C(=O)C3(CC3)N=C2c2ccc(-c3ccc4[nH]ccc4c3)cc2)C1 [compound 40, 6-{[1-(Cyclopropylcarbonyl)azetidin-3-yl]methyl}-5-[4-(1H-indol-5-yl)phenyl]-4,6-diazaspiro[2.4]hept-4-en-7-one]
92.6 | 457 | > 10 | 851 | 1200 | N#Cc1ccc(-c2ccc(C3=NC4(CC4)C(=O)N3CC3CN(C(=O)C4CC4)C3)cc2)cc1 [compound 41, 4′-(6-{[1-(Cyclopropylcarbonyl)azetidin-3-yl]methyl}-7-oxo-4,6-diazaspiro[2.4]hept-4-en-5-yl)biphenyl-4-carbonitrile]
108 | 97.7 | > 10 | 282 | 182 | N#Cc1ccc(-c2ccc(C3=NC4(CC4)C(=O)N3C[C@@H]3CCN(C(=O)C4CC4)C3)cc2)cc1 [compound 48, 4′-(6-{[(3R)-1-(Cyclopropylcarbonyl)pyrrolidin-3-yl]methyl}-7-oxo-4,6-diazaspiro[2.4]hept-4-en-5-yl)biphenyl-4-carbonitrile]
102 | 79.4 | > 10 | 162 | 123 | O=C(C1CC1)N1CC(CN2C(=O)C3(CC3)N=C2c2ccc(-c3ccc4[nH]ncc4c3)cc2)C1 [compound 51, 6-{[1-(Cyclopropylcarbonyl)azetidin-3-yl]methyl}-5-[4-(1H-indazol-5-yl)phenyl]-4,6-diazaspiro[2.4]hept-4-en-7-one]
89.9 | 759 | > 10 | 1780 | 1860 | O=C(C1CC1)N1CC(CN2C(=O)C3(CC3)N=C2c2ccc(-c3ccc4ocnc4c3)cc2)C1 [compound 52, 5-[4-(1,3-Benzoxazol-5-yl)phenyl]-6-{[1-(cyclopropylcarbonyl)azetidin-3-yl]methyl}-4,6-diazaspiro[2.4]hept-4-en-7-one]
89.2 | 407 | 6.03 | 1380 | 1580 | Cn1cc(-c2ccc(-c3ccc(C4=NC5(CC5)C(=O)N4CC4CCN(C(=O)C5CC5)CC4)cc3)cc2)cn1 [compound 56, 6-{[1-(Cyclopropylcarbonyl)piperidin-4-yl]methyl}-5-[4′-(1-methyl-1H-p;yrazol-4-yl)biphenyl-4-yl]-4,6-diazaspiro[2.4]hept-4-en-7-one]
88.1 | 759 | > 10 | 1700 | 2510 | O=C(C1CC1)N1CCC(CN2C(=O)C3(CC3)N=C2c2ccc(-c3ccc4scnc4c3)cc2)CC1 [compound 57, 5-[4-(1,3-Benzothiazol-5-yl)phenyl]-6-{[1-(cyclopropylcarbonyl)piperidin-4-yl]methyl}-4,6-diazaspiro[2.4]hept-4-en-7-one]
99.4 | 93.3 | > 10 | 288 | 263 | O=C(C1CC1)N1CC(CN2C(=O)C3(CC3)N=C2c2ccc(-c3ccc(-c4cccnc4)cc3)cc2)C1 [compound 60, 6-{[1-(Cyclopropylcarbonyl)azetidin-3-yl]methyl}-5-(4′-pyridin-3-ylbiphenyl-4-yl)-4,6-diazaspiro[2.4]hept-4-en-7-one]
115 | 74.1 | > 10 | 85.1 | 75.9 | O=C(C1CC1)N1CC[C@@H](CN2C(=O)C3(CCN(Cc4ccccc4)CC3)N=C2c2ccc(-c3ccc4[nH]ccc4c3)cc2)C1 [compound 63, (R)-2-(4-(1H-Indol-5-yl)phenyl)-8-benzyl-3-((1-(cyclopropanecarbonyl)pyrrolidin-3-yl)methyl)-1,3,8-triazaspiro[4.5]dec-1-en-4-one]
106 | 74.1 | > 10 | 282 | 1100 | O=C(C1CC1)N1CC[C@@H](CN2C(=O)C3(CCCC3)N=C2c2ccc(-c3cccc4ncccc34)cc2)C1 [compound 66, 3-{[(3R)-1-(Cyclopropylcarbonyl)pyrrolidin-3-yl]methyl}-2-(4-quinolin-5-ylphenyl)-1,3-diazaspiro[4.4]non-1-en-4-one]
100 | 282 | > 10 | 1550 | 1620 | O=C(C1CC1)N1CC[C@@H](CN2C(=O)C3(CCCC3)N=C2c2ccc(-c3cccc4cnccc34)cc2)C1 [compound 67, 3-{[(3R)-1-(Cyclopropylcarbonyl)pyrrolidin-3-yl]methyl}-2-(4-isoquinolin-5-ylphenyl)-1,3-diazaspiro[4.4]non-1-en-4-one]
107 | 63.1 | > 10 | 162 | 339 | O=C(C1CC1)N1CC[C@@H](CN2C(=O)C3(CCCC3)N=C2c2ccc(-c3cccc4[nH]ccc34)cc2)C1 [compound 68, 3-{[(3R)-1-(Cyclopropylcarbonyl)pyrrolidin-3-yl]methyl}-2-[4-(1H-indol-4-yl)phenyl]-1,3-diazaspiro[4.4]non-1-en-4-one]
100 | 224 | > 10 | 851 | 1150 | O=C(C1CC1)N1CC[C@@H](CN2C(=O)C3(CCCC3)N=C2c2ccc(-c3ccc4ccncc4c3)cc2)C1 [compound 69, 3-{[(3R)-1-(Cyclopropylcarbonyl)pyrrolidin-3-yl]methyl}-2-(4-isoquinolin-7-ylphenyl)-1,3-diazaspiro[4.4]non-1-en-4-one]
92.5 | 537 | > 10 | 1350 | ~2400 | O=C(C1CC1)N1CC[C@@H](CN2C(=O)C3(CCCC3)N=C2c2ccc(-c3cccc(-c4cc[nH]n4)c3)cc2)C1 [compound 70, 3-{[(3R)-1-(Cyclopropylcarbonyl)pyrrrolidin-3-yl]methyl}-2-[3′-(1H-pyrazol-3-yl)biphenyl-4-yl]-1,3-diazaspiro[4.4]non-1-en-4-one]
106 | 47.9 | > 10 | 174 | 1380 | Cc1cc(-c2ccc3occc3c2)ccc1C1=NC2(CCCC2)C(=O)N1C[C@@H]1CCN(C(=O)C2CC2)C1 [compound 72, 2-[4-(1-Benzofuran-5-yl)-2-methylphenyl]-3-{[(3R)-1-(cyclopropylcarbonyl)pyrrolidin-3-yl]methyl}-1,3-diazaspiro[4.4]non-1-en-4-one]
111 | 33.1 | > 10 | 64.6 | ~28.8 | Cc1cc(-c2ccc3[nH]ccc3c2)ccc1C1=NC2(CCCC2)C(=O)N1C[C@@H]1CCN(C(=O)C2CC2)C1 [compound 73, 3-{[(3R)-1-(Cyclopropylcarbonyl)pyrrolidin-3-yl]methyl}-2-[4-(1H-indol-5-yl)-2-methylphenyl]-1,3-diazaspiro[4.4]non-1-en-4-one]
114 | 22.4 | > 10 | 60.3 | 8.71 | Cc1cc(-c2ccc3cnccc3c2)ccc1C1=NC2(CCCC2)C(=O)N1C[C@@H]1CCN(C(=O)C2CC2)C1 [compound 74, 3-{[(3R)-1-(cyclopropylcarbonyl)pyrrolidin-3-yl]methyl}-2-(4-isoquinolin-6-yl-2-methylphenyl)-1,3-diazaspiro[4.4]non-1-en-4-one]
